Measured values reported in patent US20070293451A1, “Regulation ao ApoB by Hsp110 proteins and related compositions and methods” (University of Pittsburgh, priority 2006, published 2007).
Peptide text beside a SMILES is read from it. * marks the point of attachment. 6FAM = O=C1OC2(c3ccc(O)cc3Oc3cc(O)ccc32)c2cc(C(=O)*)ccc21; Ahx = NCCCCCC(=O)O

How the values were obtained:
ApoB100 = ApoB100 biogenesis and secretion from McArdle cells (pulse-chase) on Hsp110 over-expression; assay type: cell-based, rat; settings: MTP inhibitor BMS-200150 present, without Hsp110 over-expression, data not shown
Experimental: FIGS. 9A and 9B show the effect of Hsp110 over-expression on ApoB100 secretion from McArdle cells, a standard rat hepatoma cell model of lipoprotein metabolism. ApoB100 (FIG. 9A) and albumin (FIG. 9B) biogenesis and secretion were assessed by published pulse-chase analytical methods.
An Hsp110 expression vector was obtained from Dr. John Subjeck (Roswell Park Cancer Center, N.Y.), and either that vector or a vector control was introduced into McArdle cells—a rat hepatoma cell line that also expresses full-length ApoB (that is, ApoB100). […] As a control, there was no effect on albumin secretion from these cells, regardless of whether Hsp110 was over-expressed (FIG. 9B). Furthermore, the over-expression of Hsp110 in the McArdle cells in the presence of a microsomal triglyceride transfer protein (MTP) inhibitor (BMS-200150; Jamil, H., D. A. Gordon, D. C. Eustice, C. M. Brooks, J. K. Dickson, Jr., Y. Chen, B. Ricci, C.-H. Chu, T. W. Harrity, C. P. Ciosek, Jr., S. A. Biller, R. E. Gregg, and J. R. Wetterau. 1996. An inhibitor of the microsomal triglyceride transfer protein inhibits apoB secretion from HepG2 cells. Proc Natl Acad Sci USA. 93, 11991-95) increased the percent of apoB recovered in the lysate and medium fractions from 14% to 28% (data not shown).

full-length Sse1p = molecular target: T1, full-length Sse1p (Saccharomyces cerevisiae, UniProt P32589); assay: Fluorescence anisotropy binding of labeled luciferase-derived peptide to full-length Sse1p
T1 sequence (P32589 1-693): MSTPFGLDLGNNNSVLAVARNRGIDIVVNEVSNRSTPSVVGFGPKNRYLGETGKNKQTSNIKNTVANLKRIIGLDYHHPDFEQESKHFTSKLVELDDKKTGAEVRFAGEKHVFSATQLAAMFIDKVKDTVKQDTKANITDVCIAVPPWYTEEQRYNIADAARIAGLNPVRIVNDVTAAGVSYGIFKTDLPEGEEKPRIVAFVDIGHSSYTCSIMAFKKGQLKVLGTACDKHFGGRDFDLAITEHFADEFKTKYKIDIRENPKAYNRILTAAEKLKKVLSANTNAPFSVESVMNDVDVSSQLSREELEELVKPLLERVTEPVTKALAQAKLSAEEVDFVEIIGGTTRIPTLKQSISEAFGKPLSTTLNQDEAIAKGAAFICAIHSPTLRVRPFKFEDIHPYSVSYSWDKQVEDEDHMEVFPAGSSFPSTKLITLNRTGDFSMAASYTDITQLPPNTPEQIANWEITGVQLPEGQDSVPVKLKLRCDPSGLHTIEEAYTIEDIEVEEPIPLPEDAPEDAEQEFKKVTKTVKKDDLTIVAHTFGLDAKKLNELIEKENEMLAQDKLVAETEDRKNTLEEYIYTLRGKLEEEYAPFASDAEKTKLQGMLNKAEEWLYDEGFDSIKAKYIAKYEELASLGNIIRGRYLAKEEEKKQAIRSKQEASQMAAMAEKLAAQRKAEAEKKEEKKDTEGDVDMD
Experimental: (§1) Binding was assessed by fluorescence anisotropy.

[1] = molecular target: Sse1p peptide binding domain (Saccharomyces cerevisiae, UniProt P32589); settings: fluorescence anisotropy
Experimental: (SEQ ID NO: 1) (which derives from firefly luciferase), assessed by fluorescence anisotropy.
as §1

Compound: O=C1c2ccccc2CN1C1CCN(CCC(c2ccccc2)c2ccccc2)CC1 [BMS-200150, reference compound]
- percent of apoB recovered in the lysate and medium fractions (ApoB100): 14%

Compound: LICGFRVVLMYRF [Unlabeled peptide, unlabeled form of the firefly luciferase-derived peptide]
- competition with labeled peptide for binding (full-length Sse1p; data not shown): competes for binding

Compound: CC[C@H](C)[C@H](NC(=O)[C@H](CC(C)C)NC(=O)CCCCCNC(=O)c1ccc2c(c1)C1(OC2=O)c2ccc(O)cc2Oc2cc(O)ccc21)C(=O)N[C@@H](CS)C(=O)NCC(=O)N[C@@H](Cc1ccccc1)C(=O)N[C@@H](CCCNC(=N)N)C(=O)N[C@H](C(=O)N[C@H](C(=O)N[C@@H](CC(C)C)C(=O)N[C@@H](CCSC)C(=O)N[C@@H](Cc1ccc(O)cc1)C(=O)N[C@@H](CCCNC(=N)N)C(=O)N[C@@H](Cc1ccccc1)C(=O)O)C(C)C)C(C)C [6-carboxyfluorescein-aminohexanoic acid-linked-LICGFRVVLMYRF] ({6FAM-Ahx}-LICGFRVVLMYRF-OH)
- Kd (full-length Sse1p): 2 to 3 nM
- lower affinity for Sse1p peptide binding domain alone compared with Sse1p [1]: ~100 fold
